Consider 26 compounds from US20250353859A1, “COMPOUNDS AS CCR6 INHIBITORS” (Hoffmann-La Roche Inc., priority 2023, published 2025).

Read-outs that look alike come from different tables or passages of the source.

This assay deals with T1, human CCR6 (Homo sapiens, UniProt P51684).
T1 sequence (P51684 1-374): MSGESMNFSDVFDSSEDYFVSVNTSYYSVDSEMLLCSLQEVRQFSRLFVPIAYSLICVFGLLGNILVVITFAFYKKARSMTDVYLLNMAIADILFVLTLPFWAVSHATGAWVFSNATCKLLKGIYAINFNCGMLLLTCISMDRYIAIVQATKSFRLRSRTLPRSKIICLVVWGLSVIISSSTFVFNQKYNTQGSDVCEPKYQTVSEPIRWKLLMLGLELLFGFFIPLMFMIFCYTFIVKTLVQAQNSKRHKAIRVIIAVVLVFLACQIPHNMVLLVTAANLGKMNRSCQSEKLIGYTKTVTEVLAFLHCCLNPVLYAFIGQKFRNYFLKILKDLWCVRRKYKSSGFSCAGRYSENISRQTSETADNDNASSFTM
The experiment in a line: Human CCR6-CRE reporter assay. It is filed as cell-based. Further details: The second construct contained the open reading frame of human CCR6 in the pUNO1 backbone; host or cells: 293FT cells (transient transfection with TransIT-293). As for the experimental part:
293FT cells were transfected with 2 constructs using TransIT-293 (Mirus). The first construct (pGL4.29, Promega) expressed the luciferase reporter gene luc2P in response to the binding of cAMP-induced CREB to the CREelement in its promoter. The second construct contained the open reading frame of human CCR6 in the pUNO1 backbone under the control of an enhanced CMV promoter(InVivoGen).48 h after transfection, cells were harvested and diluted to 750,000 cells/ml in culture medium (DMEM, 10% FBS, 1× pen/strep(Gibco 15140)). Compounds were 2.5-fold serially diluted in DMSO. Further dilutions were made in assay medium (DMEM, 10% FBS, 1× pen/strep, 6 μM Forskolin, 6 nM CCL20). 4 μl of the compound solution was added to a white MW384 plate, followed by […] of the cell suspension. Final DMSO concentration in the assay was 0.1%. The MW384 plate was placed in an incubator at 37° C., 5% CO2 for 5 h. Luciferase activity was determined by addition of 24 μl of a 2.5× diluted BriteLite luciferase solution(Perkin Elmer), followed by luminescence measurement using a VICTOR Plate reader (Perkin Elmer). […] The relative Log IC50 was determined with GraphPad Prism 9 using a four-parameter dose-response model.
In general terms: In a reporter assay the amount or activity of a reporter protein is the signal.

The mark [1] stands for this setting: 293FT cells transfected with human CCR6 and CRE-luciferase, Forskolin + CCL20, 5 h, relative Log IC50, read-out: CCR6-CRE reporter (converted).
Where [2] appears, read: scaffold variant X = O, R1 = CF3, read-out: Activity in human CCR6-CRE reporter assay.

With `N#Cc1ccc(-c2ccc(S(=O)(=O)N3CCC(Nc4cccc(OC(F)F)c4)CC3)cc2)cc1` [Example 2, 4′-[(4-{[3-(difluoromethoxy)phenyl]Amino}piperidin-1-yl)sulfonyl]-[1,1′-biphenyl]-4-carbonitrile], the IC50 under setting [1] was 398 nM.

In the case of `NC(=O)c1cccc(-c2ccc(S(=O)(=O)N3CCC(Nc4ccc(OC(F)(F)F)cc4)CC3)cc2)c1` [Example 5, 4′-[(4-{[4-(trifluoromethoxy)phenyl]Amino}piperidin-1-yl)sulfonyl]-[1,1′-biphenyl]-3-carboxamide], under setting [1], the IC50 was 126 nM.

Take `N#Cc1ccc(-c2ccc(S(=O)(=O)N3CCC(Nc4ccc(OC(F)(F)F)cn4)CC3)cc2)cc1` [Example 7, 4′-[(4-{[5-(trifluoromethoxy)pyridin-2-yl]Amino}piperidin-1-yl)sulfonyl]-[1,1′-biphenyl]-4-carbonitrile]: under setting [1], the IC50 was 200 nM.

As to `NC(=O)c1cccc(-c2ccc(S(=O)(=O)N3CCC(Nc4ccc(OC(F)(F)F)cn4)CC3)cc2)c1` [Example 9, 4′-[(4-{[5-(trifluoromethoxy)pyridin-2-yl]Amino}piperidin-1-yl)sulfonyl]-[1,1′-biphenyl]-3-carboxamide], under setting [1], the IC50 was 79.4 nM.

With `O=C1NCc2ccc(-c3ccc(S(=O)(=O)N4CCC(Nc5cccc(OC(F)(F)F)c5)CC4)cc3)cc21` [Example 10, 6-{4-[(4-{[3-(trifluoromethoxy)phenyl]Amino}piperidin-1-yl)sulfonyl]phenyl}-2,3-dihydro-1H-isoindol-1-one], the IC50 under setting [1] is 3160 nM.

With `O=S(=O)(c1ccc(-c2ccc3nccn3c2)cc1)N1CCC(Nc2ccc(OC(F)(F)F)cn2)CC1` [Example 12, N-[1-(4-{imidazo[1,2-a]pyridin-6-yl}benzenesulfonyl)piperidin-4-yl]-5-(trifluoromethoxy)pyridin-2-amine], the IC50 under setting [2] stood at 150 nM.

In the case of `Cc1cnc2ccc(-c3ccc(S(=O)(=O)N4CCC(Nc5ccc(OC(F)(F)F)cc5)CC4)cc3)cn12` [Example 16, 1-(4-{3-methylimidazo[1,2-a]pyridin-6-yl}benzenesulfonyl)-N-[4-(trifluoromethoxy)phenyl]piperidin-4-amine], the IC50 under setting [1] was 79.4 nM.

Regarding `COCc1nnc2ccc(-c3ccc(S(=O)(=O)N4CCC(Nc5ccc(OC(F)(F)F)cc5)CC4)cc3)cn12` [Example 22, 1-{4-[3-(methoxymethyl)-[1,2,4]triazolo[4,3-a]pyridin-6-yl]benzenesulfonyl}-N-[4-(trifluoromethoxy)phenyl]piperidin-4-amine], the IC50 under setting [1] was 251 nM.

`O=S(=O)(c1ccc(-c2ccccc2)cc1)N1CCC(Nc2ccc(OC(F)(F)F)cc2)CC1` [Example 25, 1-{[1,1′-biphenyl]-4-sulfonyl}-N-[4-(trifluoromethoxy)phenyl]piperidin-4-amine]: the IC50 is, setting by setting: under setting [1], 631 nM; under setting [2], 1100 nM.

Regarding `O=S(=O)(c1ccc(-c2ccccc2)cc1)N1CCC(Nc2ccc(OC(F)F)cc2)CC1` [Example 26, 1-{[1,1′-biphenyl]-4-sulfonyl}-N-[4-(difluoromethoxy)phenyl]piperidin-4-amine], the IC50 under setting [1] was 501 nM.

For the compound `Cc1n[nH]c2ccc(-c3ccc(S(=O)(=O)N4CCC(Nc5ccc(OC(F)F)cc5)CC4)cc3)cc12` [Example 27, N-[4-(difluoromethoxy)phenyl]-1-[4-(3-methyl-1H-indazol-5-yl)benzenesulfonyl]piperidin-4-amine], the IC50 under setting [1] is 200 nM.

On to `CC(C)c1cnc2ccc(-c3ccc(S(=O)(=O)N4CCC(Nc5ccc(SC(F)(F)F)cc5)CC4)cc3)cn12` [Example 31, 1-{4-[3-(propan-2-yl)imidazo[1,2-a]pyridin-6-yl]benzenesulfonyl}-N-{4-[(trifluoromethyl)sulfanyl]phenyl}piperidin-4-amine], for which, under setting [1], the IC50 is 50.1 nM.

With `NC(=O)c1cc(-c2ccc(S(=O)(=O)N3CCC(Nc4ccc(SC(F)(F)F)cc4)CC3)cc2)ccn1` [Example 34, 4-(4-{[4-({4-[(trifluoromethyl)sulfanyl]phenyl}Amino)piperidin-1-yl]sulfonyl}phenyl)pyridine-2-carboxamide], the IC50 under setting [1] is 63.1 nM.

On to `CC1CC(Nc2ccc(OC(F)(F)F)cc2)CCN1S(=O)(=O)c1ccc(-c2ccccc2)cc1` (stereo not drawn) [Example 35, 1-{[1,1′-biphenyl]-4-sulfonyl}-2-methyl-N-[4-(trifluoromethoxy)phenyl]piperidin-4-amine], for which the IC50 under setting [1] is 2510 nM.

`CC1CC(Nc2ccc(OC(F)(F)F)cc2)CCN1S(=O)(=O)c1ccc(-c2ccc(C#N)cc2)cc1` (stereo not drawn) [Example 36, 4′-[(2-methyl-4-{[4-(trifluoromethoxy)phenyl]Amino}piperidin-1-yl)sulfonyl]-[1,1′-biphenyl]-4-carbonitrile]: under setting [1], the IC50 is 398 nM.

As for `CC1CC(Nc2ccc(OC(F)(F)F)cc2)CCN1S(=O)(=O)c1ccc(-c2ccc3c(c2)C(=O)NC3)cc1` (stereo not drawn) [Example 37, 6-{4-[(2-methyl-4-{[4-(trifluoromethoxy)phenyl]Amino}piperidin-1-yl)sulfonyl]phenyl}-2,3-dihydro-1H-isoindol-1-one], the IC50 under setting [1] was 251 nM.

Regarding `CNC(=O)c1cccc(-c2ccc(S(=O)(=O)N3CCC(Nc4ccc(OC(F)(F)F)cc4)CC3C)cc2)c1` (stereo not drawn) [Example 38, N-methyl-4′-[(2-methyl-4-{[4-(trifluoromethoxy)phenyl]Amino}piperidin-1-yl)sulfonyl]-[1,1′-biphenyl]-3-carboxamide], the IC50 under setting [1] is 126 nM.

On to `N#Cc1ccc(-c2ccc(S(=O)(=O)[C@H]3CC[C@H](Nc4ccc(OC(F)(F)F)cc4)CC3)cc2)cc1` [Example 39, 4′-{[trans-4-{[4-(trifluoromethoxy)phenyl]Amino}cyclohexyl]sulfonyl}-[1,1′-biphenyl]-4-carbonitrile], for which the IC50 under setting [1] was 100 nM.

In the case of `N#Cc1ccc(-c2ccc(S(=O)(=O)[C@H]3CC[C@H](Nc4cccc(OC(F)(F)F)c4)CC3)cc2)cc1` [Example 40, 4′-{[trans-4-{[3-(trifluoromethoxy)phenyl]Amino}cyclohexyl]sulfonyl}-[1,1′-biphenyl]-4-carbonitrile], the IC50 under setting [1] was 398 nM.

For the compound `O=S(=O)(c1ccc(-c2ccc3nccn3c2)cc1)[C@H]1CC[C@H](Nc2ccc(SC(F)(F)F)cc2)CC1` [Example 45, N-[trans-4-(4-{imidazo[1,2-a]pyridin-6-yl}benzenesulfonyl)cyclohexyl]-4-[(trifluoromethyl)sulfanyl]aniline], under setting [1], the IC50 is 79.4 nM.

Regarding `CC(C)c1cnc2ccc(-c3ccc(S(=O)(=O)[C@H]4CC[C@H](Nc5cccc(SC(F)(F)F)c5)CC4)cc3)cn12` [Example 47, N-[trans-4-{4-[3-(propan-2-yl)imidazo[1,2-a]pyridin-6-yl]benzenesulfonyl}cyclohexyl]-3-[(trifluoromethyl)sulfanyl]aniline], the IC50 under setting [1] is 100 nM.

With `Cc1cc(-c2ccc(S(=O)(=O)[C@H]3CC[C@H](Nc4ccc(SC(F)(F)F)cc4)CC3)cc2)cn2c(C(C)C)cnc12` [Example 48, N-[trans-4-{4-[8-methyl-3-(propan-2-yl)imidazo[1,2-a]pyridin-6-yl]benzenesulfonyl}cyclohexyl]-4-[(trifluoromethyl)sulfanyl]aniline], the IC50 under setting [1] is 79.4 nM.

For `NC(=O)c1cc(-c2ccc(S(=O)(=O)[C@H]3CC[C@H](Nc4ccc(SC(F)(F)F)cc4)CC3)cc2)ccn1` [Example 49, 4-(4-{[trans-4-({4-[(trifluoromethyl)sulfanyl]phenyl}Amino)cyclohexyl]sulfonyl}phenyl)pyridine-2-carboxamide], the IC50 under setting [1] was 63.1 nM.

For `O=c1[nH]nc2ccc(-c3ccc(S(=O)(=O)[C@H]4CC[C@H](Nc5ccc(SC(F)(F)F)cc5)CC4)cc3)cn12` [Example 50, 6-(4-{[trans-4-({4-[(trifluoromethyl)sulfanyl]phenyl}Amino)cyclohexyl]sulfonyl}phenyl)-2H,3H-[1,2,4]triazolo[4,3-a]pyridin-3-one], the IC50 under setting [1] was 79.4 nM.

With `N=S(=O)(c1ccc(-c2ccc3nccn3c2)cc1)[C@H]1CC[C@H](Nc2ccc(SC(F)(F)F)cc2)CC1` (stereo partly drawn) [Example 52, (4-{imidazo[1,2-a]pyridin-6-yl}phenyl)[trans-4-({4-[(trifluoromethyl)sulfanyl]phenyl}Amino)cyclohexyl](imino)-λ^6-sulfanone], under setting [1], the IC50 was 158 nM.

Regarding `N=S(=O)(c1ccc(-c2ccc3n[nH]c(=O)n3c2)cc1)[C@H]1CC[C@H](Nc2ccc(SC(F)(F)F)cc2)CC1` (stereo partly drawn) [Example 53, 6-(4-{[trans-4-({4-[(trifluoromethyl)sulfanyl]phenyl}Amino)cyclohexyl]sulfonimidoyl}phenyl)-2H,3H-[1,2,4]triazolo[4,3-a]pyridin-3-one], the IC50 under setting [1] was 316 nM.
